US20240343681A1, “MOLECULES HAVING PESTICIDAL UTILITY AND INTERMEDIATES AND PROCESSES RELATED THERETO” (priority 2021, published 2024)

System: Beet Armyworm (Spodoptera exigua, LAPHEG) second instar larva
Assay: Bioassay on beet armyworm (BAW), 128-well diet tray assay
Format: in vivo
Conditions: 50 μg/cm^2 on artificial diet, 25° C., five days
Procedure: Example A: Bioassays on Beet Armyworm (Spodoptera exigua, LAPHEG) (“BAW”) and Cabbage Looper (Trichoplusia ni, TRIPNI) (“CL”)
Bioassays on BAW were conducted using a 128-well diet tray assay. One second instar BAW larva was placed in each well (8 wells total) of the diet tray that had been previously filled with 1 mL of artificial diet to which 50 μg/cm^2 of the test molecule (dissolved in 50 μL of 90:10 acetone-water mixture) had been applied (to each of eight wells) and then allowed to dry. Trays were covered with a clear self-adhesive cover, vented to allow gas exchange, and held at 25° C., 14:10 light-dark for five days. Percent mortality was recorded for the larvae in each well; activity in the eight wells was then averaged.

Row | Structure (SMILES) | activity against BAW (percent mortality, averaged over eight wells)
1 | O=C(Nc1cc(NC(=O)[C@H]2[C@H](c3cc(Cl)cc(Cl)c3)C2(Cl)Cl)ccc1Cl)c1nc(C(F)(F)F)cs1 (racemic) [F36, trans-rac-N-(2-Chloro-5-(2,2-dichloro-3-(3,5-dichlorophenyl)cyclopropane-1-carboxamido)phenyl)-4-(trifluoromethyl)thiazole-2-carboxamide] | exhibited activity
2 | O=C(Nc1cc(NC(=O)[C@H]2[C@H](c3cc(Cl)cc(Cl)c3)C2(Cl)Cl)ccc1Cl)c1cc(=O)[nH]o1 (racemic) [F37, trans-rac-N-(2-Chloro-5-(2,2-dichloro-3-(3,5-dichlorophenyl)cyclopropane-1-carboxamido)phenyl)-3-oxo-2,3-dihydroisoxazole-5-carboxamide] | exhibited activity
3 | O=C(Nc1cc(NC(=O)C2C(c3cc(Cl)cc(Cl)c3)C2(Cl)Cl)ccc1Cl)C1CCCO1 (racemic) [F38, trans-rac-N-(2-Chloro-5-(2,2-dichloro-3-(3,5-dichlorophenyl)cyclopropane-1-carboxamido)phenyl)tetrahydrofuran-2-carboxamide] | exhibited activity
4 | CC(Oc1ccccc1)C(=O)Nc1cc(NC(=O)C2C(c3cc(Cl)cc(Cl)c3)C2(Cl)Cl)ccc1Cl (racemic) [F41, trans-rac-2,2-Dichloro-N-(4-chloro-3-(2-phenoxypropanamido)phenyl)-3-(3,5-dichlorophenyl)cyclopropane-1-carboxamide] | exhibited activity
5 | N#CC1(C(=O)Nc2cc(NC(=O)[C@H]3[C@H](c4cc(Cl)cc(Cl)c4)C3(Cl)Cl)ccc2Cl)CC1 (racemic) [F43, trans-rac-2,2-Dichloro-N-(4-chloro-3-(1-cyanocyclopropane-1-carboxamido)phenyl)-3-(3,5-dichlorophenyl)cyclopropane-1-carboxamide] | exhibited activity
6 | O=C(Nc1cc(NC(=O)C2C(c3cc(Cl)cc(Cl)c3)C2(Cl)Cl)ccc1Cl)C1CC1(F)F (racemic) [F44, trans-rac-2,2-Dichloro-N-(4-chloro-3-(2,2-difluorocyclopropane-1-carboxamido)phenyl)-3-(3,5-dichlorophenyl)cyclopropane-1-carboxamide] | exhibited activity
7 | C=CCC(=O)Nc1cc(NC(=O)[C@H]2[C@H](c3cc(Cl)cc(Cl)c3)C2(Cl)Cl)ccc1Cl (racemic) [F47, trans-rac-N-(3-But-3-enamido-4-chlorophenyl)-2,2-dichloro-3-(3,5-dichlorophenyl)cyclopropane-1-carboxamide] | exhibited activity
8 | O=C(Cc1c(F)cc(F)cc1F)Nc1cc(NC(=O)[C@H]2[C@H](c3cc(Cl)cc(Cl)c3)C2(Cl)Cl)ccc1Cl (racemic) [F49, trans-rac-2,2-Dichloro-N-(4-chloro-3-(2-(2,4,6-trifluorophenyl)acetamido)phenyl)-3-(3,5-dichlorophenyl)cyclopropane-1-carboxamide] | exhibited activity
9 | CC(=O)NCC(=O)Nc1cc(NC(=O)[C@H]2[C@H](c3cc(Cl)cc(Cl)c3)C2(Cl)Cl)ccc1Cl (racemic) [F51, trans-rac-N-(3-(2-Acetamidoacetamido)-4-chlorophenyl)-2,2-dichloro-3-(3,5-dichlorophenyl)cyclopropane-1-carboxamide] | exhibited activity
10 | O=C(Nc1cc(NC(=O)C2C(c3cc(Cl)cc(Cl)c3)C2(Cl)Cl)ccc1Cl)C1CCCN1CC(F)(F)F (racemic) [F52, trans-rac-N-(2-Chloro-5-(2,2-dichloro-3-(3,5-dichlorophenyl)cyclopropane-1-carboxamido)phenyl)-1-(2,2,2-trifluoroethyl)pyrrolidine-2-carboxamide] | exhibited activity
11 | O=C(Nc1ccc(Cl)c(NC(=O)C(F)(F)C(F)F)c1)[C@H]1[C@H](c2cc(Cl)cc(Cl)c2)C1(Cl)Cl (racemic) [F55, trans-rac-2,2-Dichloro-N-(4-chloro-3-(2,2,3,3-tetrafluoropropanamido)phenyl)-3-(3,5-dichlorophenyl)cyclopropane-1-carboxamide] | exhibited activity
12 | O=C(Nc1ccc(Cl)c(NC(=O)C(F)(F)c2ccccc2)c1)[C@H]1[C@H](c2cc(Cl)cc(Cl)c2)C1(Cl)Cl (racemic) [F57, trans-rac-2,2-Dichloro-N-(4-chloro-3-(2,2-difluoro-2-phenylacetamido)phenyl)-3-(3,5-dichlorophenyl)cyclopropane-1-carboxamide] | exhibited activity
13 | O=C(CN1CCOCC1)Nc1cc(NC(=O)[C@H]2[C@H](c3cc(Cl)cc(Cl)c3)C2(Cl)Cl)ccc1F (racemic) [F63, trans-rac-2,2-Dichloro-3-(3,5-dichlorophenyl)-N-(4-fluoro-3-(2-morpholinoacetamido)phenyl)cyclopropane-1-carboxamide] | exhibited activity
14 | O=C(Nc1cc(NC(=O)[C@H]2[C@H](c3cc(Cl)cc(Cl)c3)C2(Cl)Cl)ccc1Cl)c1ccccc1F (racemic) [F65, trans-rac-N-(2-Chloro-5-(2,2-dichloro-3-(3,5-dichlorophenyl)cyclopropane-1-carboxamido)phenyl)-2-fluorobenzamide] | exhibited activity
15 | O=C(Nc1cc(NC(=O)[C@H]2[C@H](c3cc(Cl)cc(Cl)c3)C2(Cl)Cl)ccc1Cl)c1cccc(F)c1 (racemic) [F66, trans-rac-N-(2-Chloro-5-(2,2-dichloro-3-(3,5-dichlorophenyl)cyclopropane-1-carboxamido)phenyl)-3-fluorobenzamide] | exhibited activity
16 | Cc1ccccc1C(=O)Nc1cc(NC(=O)[C@H]2[C@H](c3cc(Cl)cc(Cl)c3)C2(Cl)Cl)ccc1Cl (racemic) [F73, trans-rac-N-(2-Chloro-5-(2,2-dichloro-3-(3,5-dichlorophenyl)cyclopropane-1-carboxamido)phenyl)-2-methylbenzamide] | exhibited activity
17 | Cc1cc(C)cc(C(=O)Nc2cc(NC(=O)[C@H]3[C@H](c4cc(Cl)cc(Cl)c4)C3(Cl)Cl)ccc2Cl)c1 (racemic) [F76, trans-rac-N-(2-Chloro-5-(2,2-dichloro-3-(3,5-dichlorophenyl)cyclopropane-1-carboxamido)phenyl)-3,5-dimethylbenzamide] | exhibited activity
18 | O=C(Nc1cc(NC(=O)[C@H]2[C@H](c3cc(Cl)cc(Cl)c3)C2(Cl)Cl)ccc1Cl)c1cccc(C(F)(F)F)c1 (racemic) [F81, trans-rac-N-(2-Chloro-5-(2,2-dichloro-3-(3,5-dichlorophenyl)cyclopropane-1-carboxamido)phenyl)-3-(trifluoromethyl)benzamide] | exhibited activity
19 | O=C(Nc1cc(NC(=O)[C@H]2[C@H](c3cc(Cl)cc(Cl)c3)C2(Cl)Cl)ccc1Cl)c1ccccc1 (racemic) [F87, trans-rac-N-(2-Chloro-5-(2,2-dichloro-3-(3,5-dichlorophenyl)cyclopropane-1-carboxamido)phenyl)benzamide] | exhibited activity
20 | O=C(Nc1cc(NC(=O)[C@H]2[C@H](c3cc(Cl)cc(Cl)c3)C2(Cl)Cl)ccc1Cl)c1cccc([N+](=O)[O-])c1 (racemic) [F88, trans-rac-N-(2-chloro-5-(2,2-dichloro-3-(3,5-dichlorophenyl)cyclopropane-1-carboxamido)phenyl)-3-nitrobenzamide] | exhibited activity
21 | O=C(Nc1cc(NC(=O)[C@H]2[C@H](c3cc(Cl)cc(Cl)c3)C2(Cl)Cl)ccc1Cl)c1ccc([N+](=O)[O-])cc1 (racemic) [F89, trans-rac-N-(2-Chloro-5-(2,2-dichloro-3-(3,5-dichlorophenyl)cyclopropane-1-carboxamido)phenyl)-4-nitrobenzamide] | exhibited activity
22 | Cc1cc([N+](=O)[O-])ccc1C(=O)Nc1cc(NC(=O)[C@H]2[C@H](c3cc(Cl)cc(Cl)c3)C2(Cl)Cl)ccc1Cl (racemic) [F90, trans-rac-N-(2-Chloro-5-(2,2-dichloro-3-(3,5-dichlorophenyl)cyclopropane-1-carboxamido)phenyl)-2-methyl-4-nitrobenzamide] | exhibited activity
23 | C#Cc1ccc(C(=O)Nc2cc(NC(=O)[C@H]3[C@H](c4cc(Cl)cc(Cl)c4)C3(Cl)Cl)ccc2Cl)cc1 (racemic) [F91, trans-rac-N-(2-Chloro-5-(2,2-dichloro-3-(3,5-dichlorophenyl)cyclopropane-1-carboxamido)phenyl)-4-ethynylbenzamide] | exhibited activity
24 | CC(CC(=O)N(C)c1cc(NC(=O)C2C(c3cc(Cl)cc(Cl)c3)C2(Cl)Cl)ccc1Cl)C(F)(F)F (racemic) [F92, trans-rac-2,2-dichloro-N-(4-chloro-3-(4,4,4-trifluoro-N,3-dimethylbutanamido)phenyl)-3-(3,5-dichlorophenyl)cyclopropane-1-carboxamide] | exhibited activity
25 | Cc1cc(C#N)ccc1C(=O)N(C)c1cc(NC(=O)[C@H]2[C@H](c3cc(Cl)cc(Cl)c3)C2(Cl)Cl)ccc1Cl (racemic) [F93, trans-rac-N-(2-Chloro-5-(2,2-dichloro-3-(3,5-dichlorophenyl)cyclopropane-1-carboxamido)phenyl)-4-cyano-N,2-dimethylbenzamide] | exhibited activity
